Assay results as given in patent US12240844B2 (Voronoi, Inc., priority 2019, dated 2025).

Assays:
ALK (L1196M) = molecular target: T1, ALK (L1196M) (Homo sapiens, UniProt Q9UM73, L1196M); experiment: scanMAX Kinase panel (DiscoverX), % control; type: binding; conditions: <35% = active
T1 construct: purchased DiscoverX
Method: Specifically, for Examples 162, 160, 105, 217, 205, 96, 207, 184, 206, 221, 238, and 237 selected among the example compounds of the present invention, it was decided to measure enzyme (kinase) selectivity by DiscoverX, and the experiment was conducted using a panel for scanMAX™ Kinase analysis. At this time, the concentration of the drug treated with the enzyme was 1 uM in DMSO, the control percentage (% control) was determined in the same way as in Equation 1 below, and the results were shown in Table 6 below. [formula] Here, the positive control refers to a compound showing a control percentage of 0%, and the negative control is DMSO, indicating a control percentage of 100%. Also, in the enzyme selectivity of the present invention, if the control percentage for each enzyme was <35% (i.e., less than 35%), it was determined to have activity against the relevant enzyme.

LRRK2 (G2019S) = LRRK2 (G2019S) (Homo sapiens, UniProt Q5S007, G2019S); experiment: LRRK2 G2019S enzyme inhibition, ADP-Glo kinase assay; type: biochemical; design: purchased SignalChem L10-12GG
Chain of LRRK2 (G2019S) (Q5S007 970-2527 G2019S limits assumed): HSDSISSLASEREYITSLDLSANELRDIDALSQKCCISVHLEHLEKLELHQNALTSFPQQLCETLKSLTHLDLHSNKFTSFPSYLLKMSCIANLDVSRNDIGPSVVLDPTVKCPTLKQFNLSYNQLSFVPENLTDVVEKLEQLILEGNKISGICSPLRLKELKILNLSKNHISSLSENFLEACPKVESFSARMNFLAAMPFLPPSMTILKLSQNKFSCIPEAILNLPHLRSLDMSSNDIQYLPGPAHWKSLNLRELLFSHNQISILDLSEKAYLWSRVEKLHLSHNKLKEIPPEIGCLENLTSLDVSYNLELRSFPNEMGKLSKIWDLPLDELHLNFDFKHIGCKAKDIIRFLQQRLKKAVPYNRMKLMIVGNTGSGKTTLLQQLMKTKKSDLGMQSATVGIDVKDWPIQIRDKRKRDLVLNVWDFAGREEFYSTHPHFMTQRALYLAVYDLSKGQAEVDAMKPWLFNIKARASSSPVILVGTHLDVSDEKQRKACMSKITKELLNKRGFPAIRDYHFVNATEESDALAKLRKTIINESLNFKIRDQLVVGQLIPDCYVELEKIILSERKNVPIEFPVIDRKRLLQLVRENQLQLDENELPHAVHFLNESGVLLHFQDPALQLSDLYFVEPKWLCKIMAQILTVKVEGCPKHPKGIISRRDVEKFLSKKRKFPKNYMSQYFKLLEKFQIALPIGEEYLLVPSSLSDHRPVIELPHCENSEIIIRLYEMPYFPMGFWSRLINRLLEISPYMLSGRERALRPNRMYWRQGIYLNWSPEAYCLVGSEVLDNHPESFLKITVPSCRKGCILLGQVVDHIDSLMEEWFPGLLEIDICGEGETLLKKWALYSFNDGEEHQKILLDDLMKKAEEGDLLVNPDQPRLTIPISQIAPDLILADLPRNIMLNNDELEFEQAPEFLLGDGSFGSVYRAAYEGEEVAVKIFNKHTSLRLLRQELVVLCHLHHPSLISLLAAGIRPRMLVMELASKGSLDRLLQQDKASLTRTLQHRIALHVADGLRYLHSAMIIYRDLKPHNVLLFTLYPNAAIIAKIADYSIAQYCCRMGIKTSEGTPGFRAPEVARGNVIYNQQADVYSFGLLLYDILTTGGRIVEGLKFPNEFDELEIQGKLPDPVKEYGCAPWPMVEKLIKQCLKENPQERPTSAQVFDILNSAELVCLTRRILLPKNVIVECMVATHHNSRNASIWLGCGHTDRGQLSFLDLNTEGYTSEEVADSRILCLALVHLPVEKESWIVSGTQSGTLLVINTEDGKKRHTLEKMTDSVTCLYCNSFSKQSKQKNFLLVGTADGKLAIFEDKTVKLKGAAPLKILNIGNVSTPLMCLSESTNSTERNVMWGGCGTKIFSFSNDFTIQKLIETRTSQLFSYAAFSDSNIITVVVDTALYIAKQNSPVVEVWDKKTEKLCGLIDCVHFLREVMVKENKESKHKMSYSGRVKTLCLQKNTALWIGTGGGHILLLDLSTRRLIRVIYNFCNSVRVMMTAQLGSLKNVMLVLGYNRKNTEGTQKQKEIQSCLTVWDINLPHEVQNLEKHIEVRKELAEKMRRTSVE
How it was run: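 Activity read as ADP-Glo luminescence, normalized to untreated solvent control, with IC50 (nM) fitted over 12 final compound levels (top 50 μM). Reaction: 2 h, 25° C, human LRRK2 G2019S 16 ng, ATP 25 μM, substrate 0.2 μg, in Tris-HCl pH 7.4 with MgCl2, BSA and DTT.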

TTK = molecular target: T2, TTK (Homo sapiens, UniProt P33981); experiment: TTK enzyme inhibition, ADP-Glo kinase assay; type: biochemical; design: purchased Signalchem T20-10G; conditions: ATP 5 μM
T2 sequence (P33981 1-857): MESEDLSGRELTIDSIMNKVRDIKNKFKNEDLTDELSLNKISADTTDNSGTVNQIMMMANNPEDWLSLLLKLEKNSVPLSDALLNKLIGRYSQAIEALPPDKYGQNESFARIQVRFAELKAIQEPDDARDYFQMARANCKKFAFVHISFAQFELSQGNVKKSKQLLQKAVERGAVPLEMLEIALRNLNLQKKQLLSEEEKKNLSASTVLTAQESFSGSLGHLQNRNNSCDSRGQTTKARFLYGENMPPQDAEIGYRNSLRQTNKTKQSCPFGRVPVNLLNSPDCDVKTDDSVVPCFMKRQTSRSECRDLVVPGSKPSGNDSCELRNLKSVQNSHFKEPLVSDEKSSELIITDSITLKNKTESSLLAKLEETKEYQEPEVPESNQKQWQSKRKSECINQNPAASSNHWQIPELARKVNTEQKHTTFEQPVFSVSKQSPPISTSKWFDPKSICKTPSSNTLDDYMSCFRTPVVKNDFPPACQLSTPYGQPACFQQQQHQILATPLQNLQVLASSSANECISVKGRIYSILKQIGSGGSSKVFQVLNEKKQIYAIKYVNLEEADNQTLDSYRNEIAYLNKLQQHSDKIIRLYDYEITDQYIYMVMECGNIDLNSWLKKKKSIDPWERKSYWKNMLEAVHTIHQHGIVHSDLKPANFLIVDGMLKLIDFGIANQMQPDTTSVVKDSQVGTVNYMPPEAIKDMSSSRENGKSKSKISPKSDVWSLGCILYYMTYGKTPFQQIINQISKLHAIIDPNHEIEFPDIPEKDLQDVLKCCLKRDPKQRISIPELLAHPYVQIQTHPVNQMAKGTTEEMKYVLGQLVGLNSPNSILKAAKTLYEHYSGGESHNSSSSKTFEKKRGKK
How it was run: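 Recombinant human TTK (7.5 ng) reacted with 5 μM ATP and MBP substrate (0.2 μg) for 4 h at 25° C in Tris-HCl pH 7.4, MgCl2, BSA, DTT buffer, compound at 0.000017–1 μM. ADP formation by ADP-Glo luminescence; IC50 (nM) relative to solvent control.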

T1 sequence (Q9UM73 19-1620 L1196M): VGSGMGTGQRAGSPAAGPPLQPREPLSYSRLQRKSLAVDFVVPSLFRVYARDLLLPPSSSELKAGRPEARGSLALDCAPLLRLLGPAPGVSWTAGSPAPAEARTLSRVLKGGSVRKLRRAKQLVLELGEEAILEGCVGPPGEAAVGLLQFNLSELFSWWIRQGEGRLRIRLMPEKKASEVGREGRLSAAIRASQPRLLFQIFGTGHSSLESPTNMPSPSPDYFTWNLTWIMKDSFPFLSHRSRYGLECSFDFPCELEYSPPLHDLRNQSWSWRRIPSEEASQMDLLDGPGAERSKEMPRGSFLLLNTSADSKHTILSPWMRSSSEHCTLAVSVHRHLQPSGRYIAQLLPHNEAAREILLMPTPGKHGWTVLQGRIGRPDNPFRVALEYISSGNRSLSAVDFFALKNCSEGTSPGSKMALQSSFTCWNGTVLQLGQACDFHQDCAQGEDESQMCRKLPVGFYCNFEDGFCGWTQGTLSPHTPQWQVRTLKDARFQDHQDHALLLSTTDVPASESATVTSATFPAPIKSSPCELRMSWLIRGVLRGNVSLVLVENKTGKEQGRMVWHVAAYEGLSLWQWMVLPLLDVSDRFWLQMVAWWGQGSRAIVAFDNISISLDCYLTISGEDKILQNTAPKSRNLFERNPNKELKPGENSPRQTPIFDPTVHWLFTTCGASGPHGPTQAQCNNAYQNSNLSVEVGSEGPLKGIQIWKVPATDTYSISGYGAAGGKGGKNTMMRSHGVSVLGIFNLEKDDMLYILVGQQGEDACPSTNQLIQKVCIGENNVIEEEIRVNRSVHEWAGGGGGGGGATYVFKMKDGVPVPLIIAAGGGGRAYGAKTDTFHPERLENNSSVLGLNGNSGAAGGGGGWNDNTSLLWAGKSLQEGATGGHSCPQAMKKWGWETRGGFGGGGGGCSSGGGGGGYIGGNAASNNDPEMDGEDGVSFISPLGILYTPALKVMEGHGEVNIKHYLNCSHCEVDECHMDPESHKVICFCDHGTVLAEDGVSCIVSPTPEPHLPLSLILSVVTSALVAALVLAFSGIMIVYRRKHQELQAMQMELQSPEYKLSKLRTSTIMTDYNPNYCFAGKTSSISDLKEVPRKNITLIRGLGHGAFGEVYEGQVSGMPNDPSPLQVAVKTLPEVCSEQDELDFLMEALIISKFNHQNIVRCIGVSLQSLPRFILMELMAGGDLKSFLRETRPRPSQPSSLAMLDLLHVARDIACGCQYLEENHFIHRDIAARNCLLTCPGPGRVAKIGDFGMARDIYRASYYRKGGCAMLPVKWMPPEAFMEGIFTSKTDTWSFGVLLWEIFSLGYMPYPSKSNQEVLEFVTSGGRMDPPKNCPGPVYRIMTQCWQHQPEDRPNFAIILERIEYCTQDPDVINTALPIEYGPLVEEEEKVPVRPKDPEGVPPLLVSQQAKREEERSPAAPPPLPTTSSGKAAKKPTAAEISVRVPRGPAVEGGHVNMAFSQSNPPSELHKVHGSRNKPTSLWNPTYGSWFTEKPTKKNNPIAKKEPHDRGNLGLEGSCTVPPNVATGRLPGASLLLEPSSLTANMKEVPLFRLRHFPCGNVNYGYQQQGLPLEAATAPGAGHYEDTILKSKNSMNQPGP

- remaining binding at 1 µM (ALK (L1196M)): 1.6%
- IC50 (LRRK2 (G2019S)): 101 to 300 nM
- IC50 (TTK): < 100 nM
Structure (SMILES): CNc1cc(Nc2ccc(P3(=O)CCN(C4CC4)CC3)cc2OC)nc2[nH]cc(C(F)(F)F)c12 [Example 205, 1-cyclopropyl-4-(3-methoxy-4-((4-(methylamino)-3-(trifluoromethyl)-1H-pyrrolo[2,3-b]pyridin-6-yl)amino)phenyl)-1,4-azaphosphinane 4-oxide]
